Tests used:
EML cells = test: GFP transfection of EML cells by nucleofection, FACS; assay type: cell-based, mouse; conditions: FIG. 2B; for GFP expression when ATP in the E-PAP reaction was replaced by ATP analog: without tail extension
Experimental: Electroporation was performed using an Amaxa NUCLEOFECTOR™-II (Amaxa Biosystems, Cologne, Germany) in accordance with manufacturer recommendations. Jurkat and B cell lines were transfected using NUCLEOFECTOR™-II solution V and the set of recommended regimes for electroporation. EML cells were transfected using solutions V, T and R and different regimes of electroporation. T lymphocytes were transfected using T cell NUCLEOFECTOR™-II solution and different regimes of electroporation. Alternative methods of nucleic acids delivery were also used: cationic liposome mediated transfection was performed using LIPOFECTIN® or LIPOFECTAMIN® (Invitrogen). Electroporation was also performed with the ECM 830 (BTX) (Harvard Instruments, Boston, Mass.) or the Gene Pulser II (BioRad, Denver, Colo.), Multiporator (Eppendorf, Hamburg Germany). All procedures were performed as directed by the manufacturers. pmaxGFP plasmid DNA (Amaxa Biosystems) was used as the DNA control. The efficiency of transfection (ET) was determined 18h after transfection by fluorescence activated cell sorting (FACS). In some experiments transfectants were further analyzed each 24h until GFP could not longer be detected. Cell viability was determined by trypan blue dye exclusion.
Flow cytometry was performed using the fluorescent activated cell sorting (FACS®) assay. Flow cytometry was performed on cell subpopulations was performed at the Yale Cancer Center Flow Cytometry Shared Resource, using a FACS® Calibur flow cytometer (Becton-Dickinson, San Jose, Calif.) equipped with 488 nm laser and the standard filter setup. Fluorescence signals were collected on a logarithmic scale. A minimum of ten thousand cells were interrogated for each sample. Analysis of data was performed using FlowJo software (Tree Star, Inc., San Carlos, Calif.). The expression efficiency was calculated as the difference between the geometric mean of fluorescence of the transfectants and control (mock transfected) cells. […]

[1] = tested on: mantle cell lymphoma (MCL) cell lines; test: Viability of MCL cell lines, CELLTITER-GLO assay; assay type: cell-based
Text: FIG. 13 is a line graph showing viability (percent) of various mantle cell lymphoma (MCL) cancer cell lines (SP-53, SP-49, Granta, JEKO, and TVM) following treatment with various concentrations (M) of the BH3 mimetic ABT-737.
FIGS. 14A-14D are plots showing viability (Relative Light Units) following a CELLTITER-GLO® assay of various mantle cell lymphoma (MCL) cancer cell lines: JVM-2 (FIG. 14A), Granta-519 (FIG. 14B), JEKO-1 (FIG. 14C), and SP-53 (FIG. 14D) following treatment with various concentrations (M) of the BH3 mimetic BIM SAHB (-▪-), or a BIM SAHB R153D variant control (-●-).
A panel of mantle cell lymphoma (MCL) cell lines were exposed to BIM SAHBA, BIM SAHBA(R153D), or vehicle alone for 24 hours in OptiMEM medium followed by viability testing using the CELLTITER-GLO® (Promega) assay.

caspase 3/7 = test: Caspase 3/7 activation in MCL cell lines; assay type: cell-based; conditions: JVM-2, Granta-519, JEKO-1, SP-53
Text: FIGS. 15A-15D are plots showing caspase 3/7 activation (Relative Light Units) in various mantle cell lymphoma (MCL) cancer cell lines: JVM-2 (FIG. 15A), Granta-519 (FIG. 15B), JEKO-1 (FIG. 15C), and SP-53 (FIG. 15D) following treatment with various concentrations (μM) of the BH3 mimetic SAHB (right hand bar in each pair), or a SAHB R153D variant control (left hand bar in each pair).

metastatic melanoma = conditions: cited from earlier work
GFP mRNA = test: siRNA inhibition of GFP mRNA expression in Jurkat cells; assay type: cell-based; conditions: Jurkat cells with EGFP mRNA; the day after transfection
Text: Jurkat T cells were electroporated with different amount of FITC labeled siRNA. The condition and the kinetics of siRNA transfection were identical to mRNA transfection.

Nc1ncnc2c1nnn2[C@@H]1O[C@H](CO)[C@@H](O)[C@H]1O [8-azaadenosine]
GFP expression when ATP in the E-PAP reaction was replaced by ATP analog (EML cells): increased

synthetic peptide modeled on the BIM BH3 death domain with all-hydrocarbon crosslink; IWIAQELRXIGDXFNAYYARR (SEQ ID NO:1) [BIM SAHBA]
EC50s, impaired viability ([1]; 24 hours, OptiMEM medium, panel of MCL cell lines): low micromolar range
caspase 3/7 activation (caspase 3/7): correlated with caspase 3/7 activation

Nc1ncnc2c1ncn2[C@@H]1O[C@H](CO)C[C@H]1O [cordycepin]
GFP expression when ATP in the E-PAP reaction was replaced by ATP analog (EML cells): increased

CN(C)CC[C@H](CSc1ccccc1)Nc1ccc(S(=O)(=O)NC(=O)c2ccc(N3CCN(Cc4ccccc4-c4ccc(Cl)cc4)CC3)cc2)cc1[N+](=O)[O-] [ABT-737]
effect on viability ([1]; FIG. 13, SP-53, SP-49, Granta, JEKO, JVM): reduced viability in a subset of the MCL cell lines

CO[C@H]1[C@@H](O)[C@H](n2c[n+](C)c3c(=O)[nH]c(N)nc32)O[C@@H]1COP(=O)(O)OP(=O)(O)OP(=O)(O)OC[C@H]1O[C@@H](n2cnc3c(=O)[nH]c(N)nc32)[C@H](O)[C@@H]1O [ARCA, 3′-O-Methyl-m7G[5′]ppp[5′]G]
increase of GFP expression compared to the standard capping procedure (EML cells; GFP mRNA capped with ARCA): two-fold increase

nivolumab: anti-PD-1 antibody
overall response rate (metastatic melanoma): 30-40%

anti-GFP siRNA: anti-GFP siRNA (GCAAGCUGACCCUGAAGUUCAU) (chemistry not given here)
inhibition of GFP mRNA expression (GFP mRNA): 80%

Reference: patent US10155038B2, “Cells prepared by transient transfection and methods of use thereof” (Yale University, priority 2007, dated 2018)
